Here are results for 43 compounds from patent US11524958B2, “Tricyclic compound as CRTH2 inhibitor” (CHIA TAI TIANQING PHARMACEUTICAL GROUP CO., LTD., priority 2016, dated 2022).

This test addresses T1, CRTH2 receptor (Homo sapiens, UniProt Q9Y5Y4).
T1 construct: host or cells: CHO-K1 (PathHunter β-arrestin line)
T1 sequence (Q9Y5Y4 1-395): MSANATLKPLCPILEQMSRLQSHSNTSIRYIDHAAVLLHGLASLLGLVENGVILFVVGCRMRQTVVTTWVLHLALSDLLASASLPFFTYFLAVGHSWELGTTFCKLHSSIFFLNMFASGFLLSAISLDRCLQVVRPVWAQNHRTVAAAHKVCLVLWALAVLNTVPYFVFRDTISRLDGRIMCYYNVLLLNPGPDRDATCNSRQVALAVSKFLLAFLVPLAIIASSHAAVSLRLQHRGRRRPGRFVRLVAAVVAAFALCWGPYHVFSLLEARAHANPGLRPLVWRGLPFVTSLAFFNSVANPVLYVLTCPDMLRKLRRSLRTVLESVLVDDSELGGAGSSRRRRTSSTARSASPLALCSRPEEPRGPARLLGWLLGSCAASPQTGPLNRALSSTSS
Put plainly: PathHunter CHO-K1 CRTH2 β-arrestin assay (DiscoverX), antagonism of PGD2. The following applies: PathHunter CHO-K1 CRTH2 β-arrestin cells; compound 30 min, then EC80 agonist (PGD2) 90 min, 37° C.; chemiluminescent signal. It counts as cell-based. The method, then:
DiscoverX Corporation in the U.S was entrusted to complete this experiment by β-arrestin assay. The experimental method and results were listed below: PathHunter® CHO-K1 CRTH2 β-arrestin cells (DiscoverX, catalogue number 93-0291C2) grew under standard conditions, and were inoculated into a white-wall 384-well microplate at a density of 5,000 cells/well. 20 μL of Cell Plating Reagent 1 was used in each well. Before the test, the cells were incubated overnight at 37° C./5% CO2. A test compound was serially diluted in DMSO with a dilution factor of 3-fold to give 8 concentrations of the test compound. Shortly before the test, the serially diluted test compound was further diluted with the test buffer to 5 times of the test concentration. 5 μL of the further diluted test compound was added to the cells, and the cells were incubated for 30 min at 37° C. The concentration of the solvent was 1%. 5 μL of 6× EC80 agonist (PGD2) buffer was added to the cells, and the cells were incubated for 90 min at 37° C. Measured signals were generated by one-time addition of 15 μL (50% v/v) of PathHunter detection mixture reagent and subsequent one-hour incubation. The microplate was read through the chemiluminescent signals of PerkinElmer Envision™ reader. Biological activity of the test compound was analyzed by CBIS data analysis suite (ChemInnovation, CA), and was denoted as IC50 value.
As for `CS(=O)(=O)c1ccc(Cc2c3n(c4ccccc24)C(C(=O)O)CCC3)c(C(F)(F)F)c1` (stereo not shown) [Example 6], the concentration for half-maximal inhibition (IC50) was in the range of 0.1 to 1 µM.
The value for `O=C(O)C1CCc2c(Cc3ccc4c(c3)S(=O)(=O)CC4)c3cc(F)ccc3n2C1` (stereo not shown) [Example 44] was greater than 1 µM; that for `O=C(O)C1CCc2c(Cc3ccc4c(c3)CCS4(=O)=O)c3cc(Cl)ccc3n2C1` (stereo not shown) [Example 24] was greater than 1 µM; that for `O=C(O)C1CCc2c(Cc3cccc4c3CCS4(=O)=O)c3cc(F)ccc3n2C1` (stereo not shown) [Example 38] was greater than 1 µM.
The value for `CS(=O)(=O)c1ccc(Cc2c3n(c4ccc(F)cc24)CC(C(=O)O)CC3)c(F)c1` (stereo not shown) [Example 26] was 0.1 to 1 µM; that for `O=C(O)C1CCc2c(Cc3ccc4ccccc4n3)c3cc(F)ccc3n2C1` (stereo not shown) [Example 27] was greater than 1 µM.
The result for `CC1(C(=O)O)CCc2c(Cc3ccc(S(C)(=O)=O)cc3F)c3ccccc3n2C1` (stereo not shown) [Example 21] reads greater than 1 µM.
For the compound `CS(=O)(=O)c1ccc(Cc2c3n(c4ccccc24)C(CC(=O)O)CCC3)c(C(F)(F)F)c1` (stereo not shown) [Example 8], the half-inhibitory concentration (IC50) is greater than 1 µM.
The result for `CS(=O)(=O)c1ccc(Cc2c3ccccc3n3cc(C(=O)O)ncc23)c(C(F)(F)F)c1` [Example 31] reads greater than 1 µM.
The result for `CS(=O)(=O)c1ccc(Cc2c3ccccc3n3cc(C(=O)O)ncc23)cn1` [Example 30] reads greater than 1 µM.
The value for `CC1(C(=O)O)CCc2c(Cc3ccc(S(C)(=O)=O)cc3C(F)(F)F)c3ccccc3n2C1` (stereo not shown) [Example 18] was greater than 1 µM.
For `CS(=O)(=O)c1ccc(Cc2c3n(c4ccc(F)cc24)CC(C(=O)O)CC3)c(C(F)(F)F)c1` (single isomer, unassigned) [Example 25 peak2], the IC50 was less than 0.1 µM.
The value for `CC1(C(=O)O)CCc2c(Cc3ccc(C(F)(F)F)nc3)c3ccccc3n2C1` (stereo not shown) [Example 20] was greater than 1 µM; that for `COc1cc(C(F)(F)F)c(Cc2c3n(c4ccccc24)CC(C(=O)O)CC3)cn1` (stereo not shown) [Example 40] was greater than 1 µM; that for `CS(=O)(=O)c1ccc(Cc2c3n(c4ccccc24)CC(C(=O)O)CC3)c(C(F)(F)F)c1` (single isomer, unassigned) [Example 16 peak2] was less than 0.1 µM.
As for `COc1ccc2c(c1)c(Cc1ccc(S(C)(=O)=O)cc1C(F)(F)F)c1n2CC(C(=O)O)CC1` (stereo not shown) [Example 34], the half-inhibitory concentration (IC50) is less than 0.1 µM.
The result for `CS(=O)(=O)c1ccc(Cc2c3n(c4ccccc24)CC(C(=O)O)C3)c(C(F)(F)F)c1` (stereo not shown) [Example 32] reads 0.1 to 1 µM; that for `CS(=O)(=O)c1ccc(Cc2c3n(c4ccccc24)C(CC(=O)O)CCC3)cc1` (stereo not shown) [Example 7], greater than 1 µM.
The result for `CS(=O)(=O)c1ccc(Cc2c3n(c4ccccc24)C(C(=O)O)CCC3)cc1` (stereo not shown) [Example 1] reads greater than 1 µM.
For `CS(=O)(=O)c1ccc(Cc2c3n(c4ccc(OC(F)F)cc24)CC(C(=O)O)CC3)c(C(F)(F)F)c1` (stereo not shown) [Example 35], the half-inhibitory concentration (IC50) was less than 0.1 µM.
The result for `CS(=O)(=O)c1ccc(Cc2c3n(c4ccccc24)CC(C(=O)O)CC3)nc1` (stereo not shown) [Example 39] reads greater than 1 µM; that for `O=C(O)C1CCc2c(Cc3cc4c(cc3C(F)(F)F)S(=O)(=O)CC4)c3cc(Cl)ccc3n2C1` (stereo not shown) [Example 37], greater than 1 µM.
The result for `CS(=O)(=O)c1ccc(Cc2c3n(c4ccccc24)CC(CC(=O)O)CC3)cc1` (stereo not shown) [Example 9] reads greater than 1 µM.
For `O=C(O)C1CCc2c(Cc3ccc4c(c3)CCS4(=O)=O)c3cc(F)ccc3n2C1` (stereo not shown) [Example 28], the concentration for half-maximal inhibition (IC50) is greater than 1 µM.
`CS(=O)(=O)c1ccc(Cc2c3n(c4ccc(F)cc24)CC(C(=O)O)CC3)c(C(F)(F)F)c1` (single isomer, unassigned) [Example 25 peak1] returned an IC50 of 0.1 to 1 µM.
`O=C(O)C1CCc2c(Cc3ccc4c(c3)C(F)(F)CCS4(=O)=O)c3cc(F)ccc3n2C1` (stereo not shown) [Example 43] had an IC50 greater than 1 µM.
The value for `O=C(O)C1CCCc2c(Cc3cccnc3S(=O)(=O)c3ccccc3)c3ccccc3n21` (stereo not shown) [Example 2] was 0.1 to 1 µM.
As for `CS(=O)(=O)c1ccc(Cc2c3n(c4ncccc24)CC(C(=O)O)CC3)c(C(F)(F)F)c1` (stereo not shown) [Example 42], the IC50 is greater than 1 µM.
The result for `CS(=O)(=O)c1ccc(Cc2c3n(c4ccccc24)CC(C(=O)O)CC3)c(C(F)(F)F)c1` (stereo not shown) [Example 16] reads less than 0.1 µM; that for `CS(=O)(=O)c1ccc(Cc2c3n(c4ccc(Cl)cc24)CC(C(=O)O)CC3)c(C(F)(F)F)c1` (single isomer, unassigned) [Example 22 peak1], less than 0.1 µM; that for `CS(=O)(=O)c1ccc(Cc2c3n(c4ccc(Cl)cc24)CC(C(=O)O)CC3)c(F)c1` (stereo not shown) [Example 23], 0.1 to 1 µM.
The value for `O=C(O)CC1CCc2c(Cc3ccc4ccccc4n3)c3ccccc3n2C1` (stereo not shown) [Example 10] was greater than 1 µM.
As to `CS(=O)(=O)c1ccc(Cc2c3n(c4ccccc24)CC(CC(=O)O)CC3)c(C(F)(F)F)c1` (stereo not shown) [Example 15], the IC50 is greater than 1 µM.
Compound `O=C(O)C1CCc2c(Cc3cc4c(cc3C(F)(F)F)S(=O)(=O)CC4)c3cc(F)ccc3n2C1` (stereo not shown) [Example 36] had a half-inhibitory concentration (IC50) greater than 1 µM.
The value for `CS(=O)(=O)c1ccc(Cc2c3ccccc3n3cc(C(=O)O)ncc23)cc1` [Example 29] was greater than 1 µM; that for `O=C(O)C1CCc2c(Cc3ccc4c(c3)C(F)C(F)(F)S4(=O)=O)c3cc(F)ccc3n2C1` (stereo not shown) [Example 33] was greater than 1 µM.
`O=C(O)C1CCc2c(Cc3cccnc3S(=O)(=O)c3ccc(Cl)cc3)c3ccccc3n2C1` (stereo not shown) [Example 17] returned an IC50 of 0.1 to 1 µM.
Regarding `CS(=O)(=O)c1ccc(Cc2c3n(c4ccc(Cl)cc24)CC(C(=O)O)CC3)c(C(F)(F)F)c1` (single isomer, unassigned) [Example 22 peak2], the half-maximal inhibitory concentration (IC50) is greater than 1 µM.
The result for `O=C(O)CC1CCc2c(Cc3cccnc3S(=O)(=O)c3ccccc3)c3ccccc3n2C1` (stereo not shown) [Example 11] reads greater than 1 µM; that for `CS(=O)(=O)c1ccc(Cc2c3n(c4ccc(Cl)cc24)CC(C(=O)O)CC3)c(C(F)(F)F)c1` (stereo not shown) [Example 22], less than 0.1 µM.
The result for `CS(=O)(=O)c1ccc(Cc2c3n(c4ccccc24)CC(C(=O)O)CC3)c(C(F)(F)F)c1` (single isomer, unassigned) [Example 16 peak1] reads greater than 1 µM; that for `CS(=O)(=O)c1ccc(Cc2c3n(c4ccc(F)cc24)CC(C(=O)O)CC3)c(C(F)(F)F)c1` (stereo not shown) [Example 25], less than 0.1 µM; that for `CS(=O)(=O)c1ccc(Cc2c3n(c4ccccc24)CC(C(=O)O)CC3)cn1` (stereo not shown) [Example 41], greater than 1 µM.

For orientation: IC50 means the concentration needed to halve the response being measured.
